Reference: US4246282A, “ω-Dialkylalkanoic acid derivatives used to induce antianoxic activity” (Labaz, priority 1979, dated 1981)

What was measured:
[1] = β-Mercaptopropionic acid seizure (protection against the tonic seizure); type: in vivo, mice; conditions: Mus musculus, 0.25 h
Protocol: β-Mercaptopropionic acid is an inhibitor of glutamate decarboxylase (G.A.D.), an enzyme which catalyses the transformation of glutamate into γ-aminobutyric acid (GABA). As a consequent of this, a decrease in the GABA lever occurs together with generalized tonico-clonic seizures 3 to 4 minutes after administration.
In the present test, β-mercaptopropionic acid was administered intraperitoneally to batches of 10 male mice, at a dose of 70 mg/kg, 30 minutes after oral administration of a dose of the compound to be studied. The percentage of animals protected against the tonic seizure was registered 15 minutes after administration of the β-mercaptopropionicacid.

[2] = rota rod test (neurotoxicity, coordination of movements on a turning rod)
Protocol: This test enables the animal's ability to coordinate its movements on a turning rod to be evaluated. […] (a) 15 min. after administration of 500 mg/kg by oral route:

[3] = Pentylenetetrazol seizure; type: in vivo, mice; conditions: Mus musculus, 0.25 h
[4] = Anoxia in confined space (period of survival); type: in vivo, mice
Protocol: Batches of 15 male mice were treated with a dose of a compound to be studied. After that, each animal was placed in a hermetically sealed box of 200 cm^3. The animal was considered to be dead when it had stopped breathing.
The increase in the period of survival was then noted in % in comparison with the controls. […]

[5] = 15 min. after administration of 500 mg/kg by oral route
[6] = 30 min. after administration of 500 mg/kg by oral route
[7] = 15 min. after administration of 100 mg/kg by intraperitoneal route
[8] = 30 min. after administration of 100 mg/kg by intraperitoneal route

## CCCC(CCC)CC(=O)[O-].[Na+]
[1]; po
  ED50: 168 mg/kg
[2]; [5]
  % of failures: 30%
[2]; [6]
  % of failures: 30%
[3]; po
  ED50: 95 mg/kg

## CCCC(CCC)CC(N)=O [3-n-propyl-hexanamide, 3-n-Propyl-hexanamide]
[2]; [5]
  % of failures: 30%
[2]; [6]
  % of failures: 10%

## CCCC(CCC)CCC(N)=O [4-n-propyl-heptanamide, 4-n-Propyl-heptanamide]
[2]; [7]
  % of failures: 0%

## CCCC(CCC)CCCC(N)=O [5-n-propyl-octanamide, 5-n-Propyl-octanamide]
[2]; [5]
  % of failures: 0%
[2]; [8]
  % of failures: 50%

## CCCC(CCC)CCC(=O)O [ONa, n = 1]
[2]; [7]
  % of failures: 30%

## CCCC(CCC)CCCC(=O)O [ONa, n = 2]
[1]; male mice, oral, 30 min before β-mercaptopropionic acid 70 mg/kg i.p., registered 15 minutes after, read-out: ED50
  ED50: 273 mg/kg
[2]; [5]
  % of failures: 20%
[2]; [8]
  % of failures: 100%

## CCCC(CCC)C(N)=O [di-n-propylacetamide]
[2]; 15 minutes after administration of 170 mg/kg by oral route
  % of failures: 50%
[3]; mice, oral route, registered 15 minutes after pentylenetetrazol, read-out: ED50
  ED50: 46 mg/kg
[4]; 50 mg/kg intraperitoneal
  increase in survival time: 12%

## CCCC(CCC)C(=O)[O-].[Na+] [sodium di-n-propylacetate]
[1]; po, an other comparative test, read-out: ED50
  ED50: 175 mg/kg
[4]; 200 mg/kg intraperitoneal
  increase in survival time: 32%
